Reference: publication PMC3408606 (Thrombosis and haemostasis, 2011)
Like-named read-outs stand apart in the source and are kept apart here.

Key:
triplatin [1] = target: T1, triplatin (Triatoma infestans, UniProt Q18NS7)
triplatin [2] = target: T1, triplatin; test: biochemical
ApoD = test: Isothermal titration calorimetry of ligand binding to ApoD; conditions: ITC, ApoD expressed in HEK293 cells
platelets = test: Platelet aggregation; assay type: cell-based, human; conditions: for Effect on ADP-induced platelet aggregation: indometacin 50 μM

T1 sequence (Q18NS7 19-182 limits assumed): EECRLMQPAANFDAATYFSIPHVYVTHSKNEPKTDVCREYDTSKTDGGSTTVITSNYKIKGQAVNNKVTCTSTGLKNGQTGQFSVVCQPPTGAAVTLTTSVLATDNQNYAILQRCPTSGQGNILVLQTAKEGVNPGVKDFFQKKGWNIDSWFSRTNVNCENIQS

CCCCC/C=C\C/C=C\C[C@H](O)/C=C/C=C\CCCC(=O)O [9s-HETE]
Kd (triplatin [1]): > 1000 nM

CCCCC/C=C\C[C@H](O)/C=C/C=C\C/C=C\CCCC(=O)O [12(S)-HETE]
Binding to triplatin (triplatin [1]; ITC, Figure 3 or not shown): not observed

CCCCC[C@H](O)/C=C/C=C\C/C=C\C/C=C\CCCC(=O)O [15s-HETE]
Kd (triplatin [2]): > 1000 nM

O=C(O)CCC/C=C\C/C=C\C/C=C\C/C=C\CCCCCO [20-HETE]
Binding to triplatin (triplatin [1]; ITC, Figure 3 or not shown): not observed

Nc1ncnc2c1ncn2[C@@H]1O[C@H](COP(=O)(O)OP(=O)(O)O)[C@@H](O)[C@H]1O [ADP, adenosine diphosphate]
Binding to triplatin (triplatin [1]; ITC, Figure 3 or not shown): not observed

CCCCC/C=C\C/C=C\C/C=C\C/C=C\CCCC(=O)O [Arachidonic acid, arachidonic acid]
Binding to triplatin (triplatin [1]; ITC, Figure 3 or not shown): not observed | Binding to ApoD (ApoD): failed to detect binding

NCCc1c[nH]cn1 [Histamine, histamine]
Binding to triplatin (triplatin [1]; ITC, Figure 3 or not shown): not observed

CCCCC/C=C\C\C=C/C=C/C=C/[C@@H](SC[C@H](NC(=O)CC[C@H](N)C(=O)O)C(=O)NCC(=O)O)[C@@H](O)CCCC(=O)O [LTC4]
Binding to triplatin (triplatin [1]): not observed

CCCCC[C@H](O)/C=C/[C@H]1[C@H](O)CC(=O)[C@@H]1CCCCCCC(=O)O [PGE1]
Binding to triplatin (triplatin [1]): not observed

CCCCC[C@H](O)/C=C/[C@@H]1[C@@H](C/C=C\CCCC(=O)O)[C@@H](O)C[C@H]1O [PGF2α]
ΔG (triplatin [1]; calculated free energy, ITC 30°C, n.d. = no binding detected): -9.25 kcal/mol | Binding to ApoD (ApoD): failed to detect binding | Kd (triplatin [2]): 215 ± 10 nM

CCCCC[C@H](O)/C=C/[C@H]1C(=O)C=C[C@@H]1C/C=C\CCCC(=O)O [PGJ2]
Kd (triplatin [1]): 111 ± 3.4 nM | TΔS (triplatin [1]): -1.49 kcal/mol | ΔG (triplatin [1]): -9.65 kcal/mol | ΔH (triplatin [1]): -11.14 ± 0.38 kcal/mol

O=C(O)CCC/C=C\C[C@@H]1[C@H](CNNC(=O)Nc2ccccc2)[C@H]2CC[C@@H]1O2 [SQ29548]
Inhibition of collagen-induced platelet aggregation (platelets): partial inhibition

CCCCC[C@H](O)/C=C/[C@H]1OC(O)C[C@H](O)[C@@H]1C/C=C\CCCC(=O)O (stereo partly shown) [TXB2]
Kd (triplatin [1]): 355 ± 6.7 nM | TΔS (triplatin [1]): -2.58 kcal/mol | ΔG (triplatin [1]): -8.95 kcal/mol | ΔH (triplatin [1]): -11.53 ± 0.92 kcal/mol

CCCCC[C@H](O)/C=C/[C@@H]1[C@@H](C/C=C\CCCC(=O)O)[C@H]2CO[C@@H]1C2 [U46619]
Kd (triplatin [1]): 294 ± 51 nM | TΔS (triplatin [1]): -2.46 kcal/mol | ΔG (triplatin [1]): -9.06 kcal/mol | ΔH (triplatin [1]): -11.52 ± 0.38 kcal/mol

CCCCC[C@H](O)/C=C/[C@H]1CC2CC(C2)[C@@H]1C/C=C\CCCC(=O)O [cTXA2]
Kd (triplatin [1]): 369 ± 103 nM | TΔS (triplatin [1]): -3.90 kcal/mol | ΔG (triplatin [1]): -8.93 kcal/mol | ΔH (triplatin [1]): -12.83 ± 0.73 kcal/mol | Binding to ApoD (ApoD): failed to detect binding

COc1ccc2c(c1)c(CC(=O)O)c(C)n2C(=O)c1ccc(Cl)cc1 [indometacin]
Effect on ADP-induced platelet aggregation (platelets; ADP 1 μM (low dose)): not affected | Effect on ADP-induced platelet aggregation (platelets; ADP 10 μM): attenuated | Inhibition of collagen-induced platelet aggregation (platelets; collagen 6.6 μg/ml, inhibitor alone: indometacin 50 μM, SQ29548 0.2 μM, triplatin 1 μM): partial inhibition
